These results are taken from patent US20240199555A1, “APPLICATIONS OF BIASED LIGANDS OF THE SEROTONIN 5-HT7 RECEPTOR FOR THE TREATMENT OF PAIN, MULTIPLE SCLEROSIS AND THE CONTROL OF THERMOREGULATION” (Centre National de la Recherche Scientifique, priority 2021, published 2024).

One experiment concerns the target h5-HT7R (Homo sapiens (Human), UniProt P34969). As to the kind of experiment: ERK1/2 and c-SRC phosphorylation by western blot in HEK-293 cells stably expressing h5-HT7R. Format: cell-based. To be noted: 10 μM of ligand or increasing concentrations, western blot. On the procedure: (A, B, C, D, E, F) Time course of activation of ERK1/2 after stimulation of HEK-293 cells stably expressing h5-HT7R with various 5-HT7R ligands used at 10 μM. The cells were stimulated for the indicated periods and assayed for detection of phospho ERK1/2 by western blot analysis. […] Representative blots of three independent experiments are illustrated. The histogram on the right of each panel represents the results of densitometric analyses of three independent experiments. Data are means±SEM. * p<0.05; ** p<0.01; *** p<0.001 versus non stimulated cells (NS).
HEK-293 cells stably expressing h5-HT7R were stimulated with increasing concentrations of 5-CT or Serodolin for 7 minutes. Cells were lysed, and western blot analysis was performed. Representative Western blots from three independent experiments were shown in A-C. Quantification was performed by densitometric analyses from three independent experiments. Analyzed data were plotted versus log concentration for each compounds (A; B) or as bar graph (C) on the right panel.
Time course of activation of ERK1/2 after stimulation of HEK-293 cells stably expressing h5-HT7R with JLB060, a 5-HT7R ligand used at 10 μM. The cells were stimulated for the indicated periods and assayed for detection of phospho ERK1/2 by western blot analysis.
(§1) Treated cells were washed twice with cold PBS and lysed on ice for 30 min in lysis buffer containing 50 mM Tris pH 7.5, 150 mM NaCl, 10 mM EDTA, 1% Triton X-100 and the protease inhibitor cocktail. Cell lysates were centrifuged at 10,000×g for 10 min. Supernatant was then solubilized in Laemmli buffer with 0.1% β-mercaptoethanol. Samples were resolved by electrophoresis on 10% SDS-PAGE, and transferred electrophoretically to polyvinylidene fluoride (PVDF) membranes (GE Healthcare Life Sciences). […] membranes were washed in Tris-buffered saline (TBS; pH 7.4) containing 0.1% Tween-20 (TBS-T; 0.1%) and blocked with 5% (w/v) dry milk TBS-T 0.1% for 30 min. […] Blots were probed with anti-arrestin, anti-Phospho-ERK or anti-ERK antibody (1:2000), anti Phospho-SRC, anti SRC antibody, anti-HA or anti-GFP or anti-actin antibodies. Horseradish-peroxidase-conjugated goat anti-rabbit, anti-mouse or anti-rat antibodies (1:33,000) were used as secondary antibodies. Immunoreactive bands were detected using the Dura detection kit. Protein quantification on blots was performed using Quantity One software (Biorad).
as §1, with “12%” for “10%”, “with” for “with anti-arrestin,”, “anti-Phospho-ERK (1:2000)” for “anti-Phospho-ERK”, “anti-GAPDH” for “anti-ERK”, “(1:5000). […]” for “(1:2000), anti Phospho-SRC, anti SRC antibody, anti-HA or anti-GFP or anti-actin antibodies. Horseradish-peroxidase-conjugated goat anti-rabbit, anti-mouse or anti-rat antibodies (1:33,000) were used as secondary antibodies.”
ERK phosphorylation was monitored by western blotting after treatment of cells with 10 μM of ligands at different times ranging from 2 to 60 minutes.

In experiment [1] the target is human 5-HT2Cedited receptor (Homo sapiens, UniProt P28335). As to the kind of experiment: Radioligand binding competition, 5-HT2Cedited. To be noted: selectivity panel. The procedure:
(§2) FIG. 14: Testing of 8 molecules for radioligand binding competition activity on recombinant human 5-HT1A, 5-HT2A, 5-HT2Cedited, 5-HT6, 5-HT7 and D2(long) receptors using filtration binding assays.
(§3) Radioligand Binding experiments were conducted with Epics Therapeutics membrane preparations. Receptor accession numbers, cellular background and reference compounds are shown in this table.
(§4) The new compounds have been tested by radioligand binding competition activity at the human 5-HT1A (FAST-0500B), 5-HT2A (FAST-0505B), 5-HT2Cedited (FAST-0507B), 5-HT6 (FAST-0509B), 5-HT7a (FAST-05111B) and D2(long) (FAST-0101B) receptors at seven (7) concentrations, in duplicate. […] Reference values thus obtained for the test were compared to historical values obtained from the same receptor and used to validate the experimental session. For replicate determinations, the maximum variability tolerated in the test was of +/−20% around the average of the replicates.
(§5) Dose-response data from test compounds were analyzed with XLfit (IDBS) software using nonlinear regression applied to a sigmoidal dose-response model and the following equation: • XL Fit fit Model 203: 4 Parameter Logistic Model • A: Bottom • B: TOP • C: LogEC50 • D: Hill

In the next experiment the target is human 5-HT7a receptor (Homo sapiens (Human), UniProt P34969). Kind of experiment: Radioligand binding competition, filtration binding assay, 5-HT7a. The settings on record: affinity on 5-HT7 receptor, table of new compounds. On the procedure: as §2, §3
Sequence of human 5-HT7a receptor (P34969 other isoform, or with tags, fused parts or gaps): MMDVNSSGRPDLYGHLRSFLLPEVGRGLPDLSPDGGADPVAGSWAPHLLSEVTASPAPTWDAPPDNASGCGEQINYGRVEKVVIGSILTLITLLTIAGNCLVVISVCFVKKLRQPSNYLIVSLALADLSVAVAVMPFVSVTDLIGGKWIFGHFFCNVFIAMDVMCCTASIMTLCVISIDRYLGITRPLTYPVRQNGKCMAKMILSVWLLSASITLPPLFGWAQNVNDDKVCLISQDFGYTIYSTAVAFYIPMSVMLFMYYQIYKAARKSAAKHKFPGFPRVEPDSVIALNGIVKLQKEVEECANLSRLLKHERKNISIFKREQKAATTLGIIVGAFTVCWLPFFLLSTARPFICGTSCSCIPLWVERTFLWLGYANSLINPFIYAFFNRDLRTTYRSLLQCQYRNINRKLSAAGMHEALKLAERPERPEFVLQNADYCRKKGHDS
Reference values thus obtained for the test were compared to historical values obtained from the same receptor and used to validate the experimental session. For replicate determinations, the maximum variability tolerated in the test was of +/−20% around the average of the replicates.
as §5

In a further experiment the target is human 5-HT2A receptor (Homo sapiens (Human), UniProt P28223). Kind of experiment: Radioligand binding competition, 5-HT2A. To be noted: selectivity panel. The procedure:
as §2, §3, §4, §5

A further experiment deals with human 5-HT1A receptor (Homo sapiens (Human), UniProt P08908). As to the kind of experiment: Radioligand binding competition, 5-HT1A. The settings on record: selectivity panel. On the procedure:
as §2, §3, §4, §5

Another experiment has as its system C57BL/6 mice. As to the kind of experiment: Spared Nerve Injury (SNI) neuropathic pain model, Von Frey. To be noted: s.c.
For a further experiment, the system named is mice. Kind of experiment: Acetic acid-induced writhing test. Format: in vivo. The settings on record: 3 mg/kg, s.c., positive control. On the procedure:
(§6) FIG. 9: Analgesic effect of Serodolin in the acetic acid-induced writhing test. In this test, nociception was induced by an intraperitoneally injection (ip) of 0.1 ml/10 g acid acetic solution (10 ml/kg) in peripheral origin. Serodolin at increasing dosage was administrated by oral (po), intravenous (iv) or subcutaneous (sc) route before acid acetic injection (upper panel). Positive control animals were pretreated morphine (3 mg/kg, sc) 10 minutes before acetic acid. Five minutes after i.p. injection of acetic acid the number of writhing was recorded for 10 minutes. Data mean±SEM of values obtained from a representative experiment (n=10 animals/group). ****p<0.0001 ***p<0.001 **p<0.01 *p<0.05 as compared with the control group (Vh).
as §6, with “16:” for “9:”, “MOA51” for “Serodolin”, “i.p.injection” for “i.p. injection”, “animals/group).” for “animals/group). ****p<0.0001 ***p<0.001”, “**p<0.01” for “**p<0.01 *p<0.05”
Writhing tests: Mice (25-35 g). Groups of mice (n=10) received by oral, subcutaneous or intravenous route Serodolin at different doses (0.1-10 mg/kg) one hour before intraperitoneally injection of 1% acetic acid in a volume of 10 ml/kg. Control group received vehicle (10 ml/kg, solution of 20% DMSO and 5% tween 80). The test was carried out 5 minutes later after acid acetic injection. The characteristic writhing responses have been observed individually and counted for 10 minutes.
Analgesic activity was first evaluated using the acetic acid abdominal constriction test (writhing test), a chemical model of visceral pain. We evaluated the dose-response effect of Serodolin following single oral, intravenous and subcutaneous administration of the compound one hour before injection of acetic acid.
Analgesic activity was evaluated using the acetic acid abdominal constriction test (writhing test), a chemical model of visceral pain. We evaluated the dose-response effect of MOA51 following single oral, intravenous and subcutaneous administration of the compound one hour before injection of acetic acid. MOA51 administered by the oral route induced statistically significant dose-dependent decreases in the number of writhings at and above the dose of 1 mg/kg. By the intravenous route, MOA51 induced dose-dependent decreases in the number of writhings at and above the dose of 0.1 mg/kg.

The next experiment deals with Sprague-Dawley male rats. Kind of experiment: Formalin induced inflammatory pain model. Format: in vivo. The settings on record: single s.c., Serodolin 10 mg/kg, MOA51 1 mg/kg, morphine. The procedure: FIG. 18: Effect of a single administration of Serodolin (AIC01) or MOA51 in the formalin test in rats. Effect of a single subcutaneous administration of Serodolin (AIC01) or MOA51 in the formalin test in rats. In this test, Sprague-Dawley male rats received unilateral injection of a 2.5% formalin solution (50 μl) into the plantar aspect of the hindpaw on testing day (i.e. D0). Control group received Vehicle (20% DMSO/5% Tween 80/NaCl). Serodolin was subcutaneously (sc) administrated at 10 mg/kg and MOA51 at 1 mg/kg. Positive control animals were treated with morphine (3 mg/kg, sc). Paw licking time was measured. Results are expressed as mean±s.e.m. Percentage are expressed as decreased as compared to the vehicle-treated group and represented as figure (B). ***: p<0.001 as compared to the vehicle-treated group, Bonferroni's test after significant Two-way Repeated Measures ANOVA. NS: Non-significant.
Sprague-Dawley male rats (n=10 rats per group) received unilateral injection of a 2.5% formalin solution (50 μl) into the plantar aspect of the hindpaw on testing day (i.e. D0). Experience was separated into 4 groups of animals. Formalin animals+vehicle-treated group; […]—Formalin animals+Sponsor's Serodolin (10 mg/kg), s.c.—Formalin animals+Sponsor's MOA51 (1 mg/kg), s.c.—Formalin animals+internal validator-treated group (Morphine at 4 mg/Kg, s.c.). Single subcutaneous administration of the Vehicle and Sponsor's Compound 30 min (or other timing depending on Sponsor's design) before formalin injection on testing day (i.e. D0)/Subcutaneous administration of Morphine 30 min before formalin injection on testing day (i.e. D0). Hindpaw licking time recorded in consecutive 5 minutes periods from 0 to 5 minutes (early phase) and 17 to 27 minutes (late phase) after formalin injection.
We evaluated the effect of Serodolin as well as MOA51 in rats in the formalin test, an acute and tonic pain model based on the use of a chemical stimulus. Subcutaneous injection of formalin into the right hindpaw produces a biphasic painful response of increasing and decreasing intensity for about 30 minutes after the injection. […] Although not significant, Serodolin, MOA51 and morphine have an inhibitory effect (−40%, −35% and −57% respectively) during the early phase.

Sequence of h5-HT7R (P34969 1-432): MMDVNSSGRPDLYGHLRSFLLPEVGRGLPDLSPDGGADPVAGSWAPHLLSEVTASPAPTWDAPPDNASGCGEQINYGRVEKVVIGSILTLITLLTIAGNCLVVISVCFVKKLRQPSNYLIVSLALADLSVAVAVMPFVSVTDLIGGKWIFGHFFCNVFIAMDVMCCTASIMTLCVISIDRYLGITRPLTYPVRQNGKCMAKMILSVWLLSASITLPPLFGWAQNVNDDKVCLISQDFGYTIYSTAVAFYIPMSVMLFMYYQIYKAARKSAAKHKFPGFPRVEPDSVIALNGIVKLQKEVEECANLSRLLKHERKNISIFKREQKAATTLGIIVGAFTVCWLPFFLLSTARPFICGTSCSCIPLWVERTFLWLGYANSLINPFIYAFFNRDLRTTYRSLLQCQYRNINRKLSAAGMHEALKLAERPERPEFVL
Sequence of human 5-HT1A receptor (P08908 whole entry): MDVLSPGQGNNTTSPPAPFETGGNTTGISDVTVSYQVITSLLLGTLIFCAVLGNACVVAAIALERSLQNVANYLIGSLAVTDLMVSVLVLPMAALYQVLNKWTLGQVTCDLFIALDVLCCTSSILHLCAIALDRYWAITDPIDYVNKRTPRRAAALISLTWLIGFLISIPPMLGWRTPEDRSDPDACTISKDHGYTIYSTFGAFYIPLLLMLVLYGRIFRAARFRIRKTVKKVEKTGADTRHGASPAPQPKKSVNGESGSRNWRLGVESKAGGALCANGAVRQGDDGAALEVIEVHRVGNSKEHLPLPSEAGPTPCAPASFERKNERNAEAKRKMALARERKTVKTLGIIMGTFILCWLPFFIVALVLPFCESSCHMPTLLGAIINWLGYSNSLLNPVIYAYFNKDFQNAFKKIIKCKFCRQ
Sequence of human 5-HT2Cedited receptor (P28335 33-458 limits assumed): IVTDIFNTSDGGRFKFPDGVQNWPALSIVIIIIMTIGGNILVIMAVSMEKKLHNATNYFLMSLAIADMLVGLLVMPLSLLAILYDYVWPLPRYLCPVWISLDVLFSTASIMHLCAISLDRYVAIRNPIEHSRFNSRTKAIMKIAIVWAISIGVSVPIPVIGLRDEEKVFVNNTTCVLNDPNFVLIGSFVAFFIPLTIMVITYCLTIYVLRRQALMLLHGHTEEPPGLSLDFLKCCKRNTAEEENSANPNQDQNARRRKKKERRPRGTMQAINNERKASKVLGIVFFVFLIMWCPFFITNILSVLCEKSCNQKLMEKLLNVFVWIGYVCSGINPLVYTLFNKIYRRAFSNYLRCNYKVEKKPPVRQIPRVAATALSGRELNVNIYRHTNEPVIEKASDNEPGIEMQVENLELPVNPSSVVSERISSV
Sequence of human 5-HT2A receptor (P28223 whole entry): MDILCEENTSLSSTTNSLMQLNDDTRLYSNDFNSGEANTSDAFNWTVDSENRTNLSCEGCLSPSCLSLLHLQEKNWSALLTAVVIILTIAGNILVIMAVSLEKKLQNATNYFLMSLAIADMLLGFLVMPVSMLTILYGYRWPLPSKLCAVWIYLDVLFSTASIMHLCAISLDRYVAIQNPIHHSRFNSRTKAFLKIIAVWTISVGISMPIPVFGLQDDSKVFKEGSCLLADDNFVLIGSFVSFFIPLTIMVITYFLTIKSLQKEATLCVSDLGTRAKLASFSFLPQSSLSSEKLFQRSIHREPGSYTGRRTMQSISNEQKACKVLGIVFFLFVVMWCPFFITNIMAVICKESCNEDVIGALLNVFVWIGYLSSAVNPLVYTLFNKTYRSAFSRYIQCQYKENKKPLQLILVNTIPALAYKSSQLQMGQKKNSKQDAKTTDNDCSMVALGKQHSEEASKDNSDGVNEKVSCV
Description for C57BL/6 mice: Pregabalin, vehicle or compounds solutions are subcutaneously administrated for 8 consecutive days. • (A) Mechanical response threshold after the first administration (D+10). […] Positive control animals were treated with Pregabalin (5 mg/kg, sc). Statistical differences are indicated compared to vehicle group (Two-way RM ANOVA followed by Bonferroni post-hoc test: ***p<0.001, ** p<0.01, * p<0.05). […] Positive control animals were treated with Pregabalin (5 mg/kg, sc). Statistical differences are indicated compared to vehicle group (Two-way RM ANOVA followed by Bonferroni post-hoc test: ***p<0.001, ** p<0.01, * p<0.05). […] (Two-way RM ANOVA followed by Bonferroni post-hoc test: ***p<0.001, ** p<0.01, * p<0.05)
MOA51 and Serodolin (AIC01) compounds were diluted in NDT solution (NaCl 0.9%—DMSO 20%—Tween80 5%). […] AIC01 was resuspended at 0.5 mg/mL and administrated at a ratio of 100 μl per 10 g (dose of 5 mg/kg).
Experiment starts with 8 weeks old male C57B16J mice (from Charles River). Study was performed on 40 mice (2 mice were excluded during the study due to health guidelines) divided in 4 randomized groups. • Group A: s.c. injection at 5 mg/kg of pregabalin. • Group B: s.c. injection at 0.5 mg/kg of MOA51. • Group C: s.c. injection at 5 mg/kg of Serodolin (AIC01). • Group D: s.c. injection of NDT solution (referred as Vehicle hereafter).
Compounds solutions, pregabalin and vehicle were subcutaneously administrated (100 μl/10 g) for 9 consecutive days, starting 10 days after surgery. Ligature and transection of the common peroneal and tibial distal branches of the sciatic nerve was made leaving the sural branch intact. 7 days post-surgery, a decrease of threshold response to Von Frey filaments of ipsilateral hind-paw was observed corresponding to neuropathic pain apparition (mechanical allodynia). Mechanical threshold response of mice were measured with calibrated Von Frey filaments using the up/down method. Experimenter was blind to mice treatment. Measures are performed as follow: one baseline measure before surgery, one measure at D+10, D+12, D+14, D+16 and D+18 before drug's administration, and 1 h, 2 h post-drug administration. A supplementary measure 4 h post-drug administration was performed at D+10 and D+18.
Two-way RM ANOVA (followed by Bonferroni post-hoc test) was used to analysed time course response at D+10 and D+18. Area under the curve was determined with the 1 h and 2 h post-drug administration measures to investigated tolerance of repeated administration of compounds

For `O=C1Nc2cccc3c2C1(CCCCN1CC=C(c2ccccc2)CC1)CCC3` (stereo not drawn) [DR4004, reference compound], at h5-HT7R, the “induction of ERK phosphorylation” value is recorded as “none of them were able to induce ERK activation”.

For `O=c1[nH]c2ccccc2n1CCCCCN1CCCN(c2ccc(F)cc2)CC1` [JLB060], the “induction of ERK phosphorylation” value on h5-HT7R is recorded as “robustly induce ERK phosphorylation”. In addition, the concentration for half-maximal inhibition (IC50) amounted to 902 nM in experiment [1] (read-out: RLB 5-HT2Cedited IC50), 0.98 nM on human 5-HT7a receptor, 137 nM at human 5-HT2A receptor (read-out: RLB 5-HT2A IC50) and 850 nM on human 5-HT1A receptor (read-out: RLB 5-HT1A IC50). Besides, the inhibition constant Ki in experiment [1] (read-out: RLB 5-HT2Cedited Ki) stood at 148 nM; at human 5-HT7a receptor it was 0.69 nM; on human 5-HT2A receptor (read-out: RLB 5-HT2A Ki), 23 nM; at human 5-HT1A receptor (read-out: RLB 5-HT1A Ki), 425 nM.

On to `CC(C)C[C@H](CN)CC(=O)O` [Pregabalin, reference compound], for which, in the experiment with C57BL/6 mice (9 consecutive days), the “tolerance after repetitive administration (AUC)” value was “significant decrease of the analgesic effect”. Besides, the “mechanical response threshold vs vehicle” value in the experiment with C57BL/6 mice (first (D+10) and last (D+18) administration, 1 h and 2 h) was “significant increase of the mechanical response threshold”.

`CN1CC[C@]23c4c5ccc(O)c4O[C@H]2[C@@H](O)C=C[C@H]3[C@H]1C5` [morphine, reference compound]: in the experiment with mice, the “inhibition of the writhing assay response” value is “full inhibition”. Also, the “inhibitory effect on paw licking, early phase” value in the experiment on Sprague-Dawley male rats (0 to 5 minutes, not significant) is reported as −57%. In the experiment on Sprague-Dawley male rats (17 to 27 minutes), the “inhibition of licking, late phase” value was −64%.

Usually IC50 stands for the concentration needed to halve the response being measured. For orientation: Ki means the equilibrium dissociation constant of an inhibitor or competing ligand from its target.
